According to publication PMC12490008 (Environmental Science & Technology, 2025):
*1 amine or outer side, *2 acyl side, *3 side chain or, on linkers, in order; H or OH if unused. Where a SMILES comes first, the peptide text is derived from it. Bridges are numbered along the chain shown (N, C = ends). [ ]: non-standard residue; d: D form. Adda = CO[C@@H](Cc1ccccc1)[C@@H](C)/C=C(C)/C=C/[C@H](N[*:1])[C@H](C)C(=O)[*:2]; dAsp(3S-Me) = C[C@H](C(=O)[*:3])[C@@H](N[*:1])C(=O)[*:2]; d(γGlu) = O=C(O)[C@@H](CCC(=O)[*:2])N[*:1]; hTyr = N[C@@H](CCc1ccc(O)cc1)C(=O)O; NMeA = CN[C@@H](C)C(=O)O; NMeDha = C=C(NC)C(=O)O; CO = O=C([*:1])[*:2]

Legend:
[1] = tested on: River Chriesbach biofilm suspension
[2] = tested on: River Chriesbach biofilm suspension (100%)
[3] = tested on: River Chriesbach river water
[4] = tested on: River Chriesbach biofilm suspension (100%, 10%, 1%)
[5] = tested on: River Chriesbach biofilm suspensions

| Compound | removal within 3 days [1] | 1.3d removal, 2% metabolite [2] [%] | 1.3d removal, 10% metabolite [2] [%] | 1.3d removal, 100% metabolite [2] [%] | Half-lives (h), 10% metabolite [2] [h] | Half-lives (h), 100% metabolite [2] [h] | 1d removal, River water [3] [%] | Half-lives (h), River water [3] | 1d removal, 1% biofilm [4] [%] | 1d removal, 10% biofilm [4] [%] | 1d removal, 100% biofilm [4] [%] | Half-lives (h), 10% biofilm [4] | Half-lives (h), 100% biofilm [4] [h] | Half-lives (h), 1% biofilm [4] | Half-lives (h), 2% metabolite [2] [h] | Lag-time (h), 2% metabolite [2] [h] | Lag-time (h), 10% metabolite [2] [h] | Lag-time (h), 100% metabolite [2] [h] | Lag-time (h), River water [3] | Lag-time (h), 100% biofilm [4] [h] | other results |
| --- | --- | --- | --- | --- | --- | --- | --- | --- | --- | --- | --- | --- | --- | --- | --- | --- | --- | --- | --- | --- | --- |
| CC[C@H](C)[C@@H]1NC(=O)[C@H](NC(=O)N[C@@H](CCCNC(=N)N)C(=O)O)CCCCNC(=O)[C@H](Cc2ccccc2)NC(=O)[C@H](C)N(C)C(=O)[C@H](CCc2ccc(O)cc2)NC1=O [Anabaenopeptin F] ({Arg-CO}-[dK]I[hTyr][NMeA]F; lactam 1-C) | more than 50% | 100 | 99 | 62 | 10.8 | 30.2 | -44 | n.d.(decay) | -13 | 28 | 83 | 106.3 h | 11.5 |  |  |  |  |  |  |  |  |
| CC[C@H](C)[C@@H]1NC(=O)[C@H](NC(=O)N[C@@H](Cc2c[nH]c3ccccc23)C(=O)O)CCCCNC(=O)[C@H](Cc2ccccc2)NC(=O)[C@H](C)N(C)C(=O)[C@H](CCc2ccc(O)cc2)NC1=O [Ferintoic acid B] ({Trp-CO}-[dK]I[hTyr][NMeA]F; lactam 1-C) |  |  |  |  |  |  |  |  |  |  |  |  |  |  |  |  |  |  |  |  | biodegradability in biofilm suspensions (in words) [5]: did not show detectable biotransformation |
| C=C1C(=O)N[C@H](C)C(=O)N[C@@H](CCc2ccc(O)cc2)C(=O)N[C@@H](C(=O)O)[C@H](C)C(=O)N[C@@H](CCCNC(=N)N)C(=O)N[C@@H](/C=C/C(C)=C/[C@H](C)[C@H](Cc2ccccc2)OC)[C@H](C)C(=O)N[C@@H](C(=O)O)CCC(=O)N1C [MC-HtyR] (R[Adda][d(γGlu)][NMeDha][dA][hTyr][dAsp(3S-Me)]-OH; lactam N-7) | 31% | 33 | 14 | 9 |  | 70.4 | -36 | n.d.(decay) | -13 | 19 | 17 | n.d.(decay) | 51.8 | n.d.(decay) |  |  |  |  |  |  | biodegradability in biofilm suspensions (in words) [5]: biodegradable |
| Aerucyclamide A | 20% | 64 | 43 | 21 | 34.9 | 56.9 | -23 | n.d.(decay) | -14 | -2 | -2 | n.d.(decay) | 66.9 | n.d.(decay) | 28.4 | 28.0 | 34.8 | 56.9 | n.d.(decay) | 66.8 | Lag-time (h), 1% biofilm [4]: n.d.(decay); Lag-time (h), 10% biofilm [4]: n.d.(decay) |
| Anabaenopeptin 871 |  |  |  |  |  |  |  |  |  |  |  |  |  |  |  |  |  |  |  |  | biodegradability in biofilm suspensions (in words) [5]: did not show detectable biotransformation |
| Anabaenopeptin A | 32-35% | 100 | 98 | 46 | 13.4 | 34.9 | -28 | n.d.(decay) | -9 | 25 | 86 | 103.7 h | 11.5 | 177.1 h | 7.2 | 6.7 | 12.3 | 34.8 | n.d.(decay) | 10.2 | expected river water half-lives [3]: 8.6 to 10.6 days; Lag-time (h), 1% biofilm [4]: 98.1 h; Lag-time (h), 10% biofilm [4]: 102.8 h |
| Anabaenopeptin B |  | 100 | 99 | 62 | 11.2 | 30.0 | -23 | n.d.(decay) | -11 | 23 | 85 | 111.9 h | 10.4 |  | 6.2 | 5.3 | 10.3 | 29.9 | n.d.(decay) | 8.5 | detectability at day 5 [1]: not detectable anymore; lag time (shoulder-log fitting) [1]: 2.3 days; initial removal at 1.3 days at decreased initial metabolite concentrations [2]: ~100%; Lag-time (h), 10% biofilm [4]: 111.7 h |
| Anabaenopeptin D |  |  |  |  |  |  |  |  |  |  |  |  |  |  |  |  |  |  |  |  | biodegradability in biofilm suspensions (in words) [5]: did not show detectable biotransformation |
| Cyanopeptolin 963A | 32-35% | 100 | 98 | 64 |  | 29.6 | -81 |  | -26 | 5 | 56 |  |  |  |  |  |  | 29.5 |  |  |  |
| Cyanopeptolin 1020 |  | 100 | 100 | 94 | 8.3 | 9.9 |  | 129.5 h |  | 31 | 91 | 64.2 h | 9.0 | 112.1 h | 6.2 | 5.7 | 8.3 | 0.4 |  | 6.7 | detectability at day 5 [1]: not detectable anymore; lag time (shoulder-log fitting) [1]: 1.6 days; degradation in ambient river water [3]: detectable degradation; lag time, ambient river water [3]: 5.4 days; lag time, 1% biofilm [4]: 4.1 days; lag time, 10% biofilm [4]: 2.5 days |
| Cyanopeptolin A | more than 50% | 100 | 100 | 97 | 6.5 | 5.8 | 3 | n.d.(decay) | 10 | 57 | 98 | 35.9 h | 5.1 | 105.9 h |  |  | 6.1 | 0.0 | n.d.(decay) | 0.8 | Lag-time (h), 1% biofilm [4]: 89.7 h; Lag-time (h), 10% biofilm [4]: 0.0 h |
| Cyanopeptolin B | more than 50% | 100 | 100 | 96 |  | 7.7 | 2 |  | 16 | 49 | 100 |  |  |  |  |  |  | 0.0 |  |  |  |
| Cyanopeptolin C | more than 50% | 100 | 100 | 82 | 8.5 | 18.1 | -3 |  | 1 | 29 | 80 |  |  |  |  |  | 8.5 | 9.6 |  |  |  |
| Cyanopeptolin D | more than 50% | 100 | 100 | 76 | 11.1 | 27.2 | 11 | n.d.(decay) | 4 | 26 | 77 |  | 19.1 |  | 7.4 | 7.3 | 10.5 | 27.2 | n.d.(decay) | 18.7 |  |
| Oscillamide Y | 32-35% | 100 | 98 | 51 | 12.8 | 33.9 | -24 | n.d.(decay) | 1 | 28 | 86 | 101.7 h | 11.1 | 191.5 h | 7.1 | 6.8 | 11.7 | 33.8 | n.d.(decay) | 9.4 | expected river water half-lives [3]: 7.2 to 8.0 days; Lag-time (h), 1% biofilm [4]: 0.0 h; Lag-time (h), 10% biofilm [4]: 99.6 h |
